We go through 1 compound from ChEMBL document CHEMBL1770138, “Synthesis and SAR of pyrimidine-based, non-nucleotide P2Y14 receptor antagonists” (Bioorg Med Chem Lett, 2011).

SMILES strings stand for the structures.

Data set [1] can be described thus: Drug uptake in plasma of C57B6 mouse after 24 hrs. Particulars: read-out: Drug uptake. The data set is classed as ADME.
The nature of data set [2]: in vivo. The conditions noted are these: C57B6, mouse, iv, 5 mg/kg.
Data set [3] can be described thus: in vivo. The conditions noted are these: C57B6, mouse, po, 50 mg/kg.
The nature of data set [4]: in vivo. Particulars: C57B6, mouse, po, 50 mg/kg. This is another data set of the same source.
Data set [5] can be described thus: in vivo. Particulars: C57B6, mouse.
The nature of data set [6]: in vivo. Particulars: C57B6, mouse, iv, 5 mg/kg. This is another data set of the same source.

In general, Vd refers to the apparent volume that relates the amount in the body to the concentration in plasma or blood. The Cmax is the maximum level reached in the sampled fluid or tissue. Broadly, the half-life is the time needed for the level to fall by half in the phase considered. Broadly, the clearance is the rate of elimination divided by the concentration. The low end stands for inefficient removal, the high end for efficient removal. Take `CCc1cccc(NC(=O)N2CCc3nc(-c4ccc5c(c4)OCO5)nc(-c4ccccc4C)c3C2)c1`: the concentration at 24 h in data set [1] amounted to 400 nM. In the data set “in vivo [2]”, this compound yielded a Vd of 19 L/kg. The compound also yielded a Cmax in the data set “in vivo [3]” of 2400 nM. The bioavailability in the data set “in vivo [4]” came out at 134%. The half-life in “in vivo [5]” is 11 h. Besides, the clearance in the data set “in vivo [6]” was 48 mL/min/kg.
